Laboratory results published in US20090062369A1, “USE OF SECRETORY PHOSPHOLIPASE A2 (SPLA2) INHIBITORS TO DECREASE SPLA2 LEVELS” (priority 2007, published 2009).

Tested on: serum sPLA2
Experiment: Effect of twice-a-day oral A-002 on serum sPLA2 levels in subjects with stable coronary artery disease (Example 6)
Type: in vivo, human
Method: The protocol for preparing standard curve, test, and quality control samples for use in the assay disclosed herein is set forth in Example 5. Samples are prepared according to this protocol, then loaded in duplicate onto a plate (Cayman catalog no. 485002 or equivalent) that has been pre-coated with a monoclonal sPLA2 antibody (“capture antibody”) that specifically binds sPLA2. In certain embodiments, the capture antibody may interact with a specific form of sPLA2, such as for example sPLA2 type IIA.
sPLA2 acetylcholinesterase:Fab′ conjugate (AChE:Fab′) (“conjugate”) (Cayman catalog no. 485000 or equivalent) is reconstituted in EIA buffer (Cayman catalog no. 400060 or equivalent). Cayman EIA buffer is 1M phosphate, pH 7.0, 1% BSA, 4M NaCl, 10 mM EDTA, and 0.1% sodium azide. Reconstituted conjugate is added to each well of the plate. The conjugate binds a different sPLA2 epitope than the capture antibody, allowing the capture antibody and the conjugate to form a “sandwich” that is immobilized on the plate. Excess reagents are washed away, and the plate is covered and incubated overnight at 2-8° C.
Prior to development, the wells are washed five to six times with wash buffer (Cayman catalog no. 400062 or equivalent). To develop the plate, Ellman's Reagent (Cayman catalog no. 400050 or equivalent) is reconstituted in water and added to each well according to manufacturer instructions. The reconstituted Ellman's Reagent must be used the same day it is prepared because it is unstable. Ellman's Reagent contains an AChE substrate. Specifically, Ellman's Reagent contains acetylthiocholine and 5,5′-dithio-bis-(2-nitrobenzoic acid). Hydrolysis of acetylthiocholine by acetylcholinesterase produces thiocholine, which reacts with 5,5′-dithio-bis-(2-nitrobenzoic acid) to produce 5-thio-2-nitrobenzoic acid. 5-thio-2-nitrobenzoic acid has a strong absorbance at 412 nm. The intensity of absorbance at this wavelength is directly proportional to the concentration of bound conjugate, which is in turn is directly proportional to the concentration of sPLA2 present (Absorbance a [AChE:Fab′ conjugate] α [sPLA2]). During the development step, the plate is shaken, preferably in the dark. In certain embodiments the development time for the assay is 0.5 to 3 hours, preferably 1 to 1.5 hours. At the end of the development period, the high sPLA2 standards should have greater yellow color development than the zero standards. Absorbance of each well is measured at 400-420 nm using a micro-well plate reader. In certain embodiments, absorbance is measured at about 405 nm.
Absorbance readings for duplicate wells are averaged, and the relative standard deviation and % CV are calculated. Standard curve data are used to generate a four parameter curve, and quality control and test samples are measured against the appropriate standard curve (i.e., the standard curve with the same serum content). In order for a test to be considered valid, variation between duplicate wells should be no more than about 25%, and negative controls (blanks) for each standard curve should have a mean absorbance of less than about 0.3.
The method disclosed herein for measuring sPLA2 levels in serum was utilized to determine the effect of administering certain sPLA2 inhibitors on sPLA2 levels in 84 human subjects. The subjects included 24 subjects with diabetes, 32 subjects with metabolic syndrome, and 75 subjects receiving statin treatment. Subjects were administered the sPLA2 inhibitor A-002, a prodrug form of A-001, twice a day at varying dosages from 50 to 500 mg. The structures of A-002and A-001 are set forth below. At two weeks and four weeks after the first administration, sPLA2 levels were measured and compared to pre-administration baseline levels.
84 subjects with stable coronary artery disease were randomized to receive placebo or A-002 via oral administration twice a day over a four week administration period. […]

[1] = 500 mg, non-diabetes subgroup of ITT population
[2] = 500 mg, statin subgroup of ITT population
[3] = A-002 (50 mg), ITT subjects exhibiting at least 3 out of 5 metabolic syndrome criteria
[4] = A-002 (50 mg), non-statin subgroup of ITT population
[5] = A-002 (100 mg), ITT subjects exhibiting at least 3 out of 5 metabolic syndrome criteria
[6] = A-002 (100 mg), non-statin subgroup of ITT population
[7] = A-002 (250 mg), ITT subjects exhibiting at least 3 out of 5 metabolic syndrome criteria
[8] = A-002 (250 mg), non-statin subgroup of ITT population
[9] = A-002 (500 mg), ITT subjects exhibiting at least 3 out of 5 metabolic syndrome criteria

CCc1c(C(=O)C(N)=O)c2c(OCC(=O)OC)cccc2n1Cc1ccccc1 [A-002, [[3-(2-Amino-1,2-dioxoethyl)-2-ethyl-1-(phenylmethyl)-1H-indol-4-yl]oxy]acetic acid methyl ester]
sPLA2 level, Week 2, Range [1]: 0.05 to 0.50 ng/mL | sPLA2 level, Week 4, Mean [1]: 0.13 ng/mL | sPLA2 level, Week 4, Median [1]: 0.05 ng/mL | sPLA2 level, Week 4, Range [1]: 0.05 to 0.40 ng/mL | sPLA2 Change from baseline at week 2, Mean [2]: -2.93 ng/mL | sPLA2 Change from baseline at week 2, Median [2]: -3.30 ng/mL | sPLA2 Change from baseline at week 2, Range [2]: -4.80 to -0.55 ng/mL | sPLA2 Change from baseline at week 4, Mean [2]: -2.99 ng/mL | sPLA2 Change from baseline at week 4, Median [2]: -3.50 ng/mL | sPLA2 Change from baseline at week 4, Range [2]: -4.80 to -0.55 ng/mL | sPLA2 level, Baseline, Mean [2]: 3.05 ng/mL | sPLA2 level, Baseline, Median [2]: 3.00 ng/mL | sPLA2 level, Baseline, Range [2]: 0.60 to 5.40 ng/mL | sPLA2 level, Week 2, Mean [2]: 0.20 ng/mL | sPLA2 level, Week 2, Median [2]: 0.10 ng/mL | sPLA2 level, Week 2, Range [2]: 0.05 to 0.60 ng/mL | sPLA2 level, Week 4, Mean [2]: 0.14 ng/mL | sPLA2 level, Week 4, Median [2]: 0.05 ng/mL | sPLA2 level, Week 4, Range [2]: 0.05 to 0.60 ng/mL | sPLA2 level, Baseline, Mean [3]: 3.47 ng/mL | sPLA2 level, Baseline, Median [3]: 2.70 ng/mL | sPLA2 level, Baseline, Range [3]: 0.80 to 8.80 ng/mL | sPLA2 level, Change from baseline at week 2, Mean [3]: -2.89 ng/mL | sPLA2 level, Change from baseline at week 2, Median [3]: -2.50 ng/mL | sPLA2 level, Change from baseline at week 2, Range [3]: -5.30 to -0.60 ng/mL | sPLA2 level, Change from baseline at week 4, Mean [3]: -2.76 ng/mL | sPLA2 level, Change from baseline at week 4, Median [3]: -2.15 ng/mL | sPLA2 level, Change from baseline at week 4, Range [3]: -6.40 to -0.60 ng/mL | sPLA2 level, Week 2, Mean [3]: 0.96 ng/mL | sPLA2 level, Week 2, Median [3]: 0.30 ng/mL | sPLA2 level, Week 2, Range [3]: 0.20 to 4.00 ng/mL | sPLA2 level, Week 4, Mean [3]: 0.81 ng/mL | sPLA2 level, Week 4, Median [3]: 0.65 ng/mL | sPLA2 level, Week 4, Range [3]: 0.10 to 2.40 ng/mL | sPLA2 level, Baseline, Mean [4]: 1.80 ng/mL | sPLA2 level, Baseline, Median [4]: 1.80 ng/mL | sPLA2 level, Baseline, Range [4]: 1.80 to 1.80 ng/ml | sPLA2 level, Baseline, Mean [5]: 2.97 ng/mL | sPLA2 level, Baseline, Median [5]: 2.20 ng/mL | sPLA2 level, Baseline, Range [5]: 0.05 to 6.00 ng/mL | sPLA2 level, Change from baseline at week 2, Mean [5]: -1.01 ng/mL | sPLA2 level, Change from baseline at week 2, Median [5]: -1.80 ng/mL | sPLA2 level, Change from baseline at week 2, Range [5]: −3.30 to +2.85 ng/ml | sPLA2 level, Change from baseline at week 4, Mean [5]: -2.78 ng/mL | sPLA2 level, Change from baseline at week 4, Median [5]: -2.70 ng/mL | sPLA2 level, Change from baseline at week 4, Range [5]: -5.70 to 0.00 ng/mL | sPLA2 level, Week 2, Mean [5]: 1.20 ng/mL | sPLA2 level, Week 2, Median [5]: 0.80 ng/mL | sPLA2 level, Week 2, Range [5]: 0.30 to 2.90 ng/mL | sPLA2 level, Week 4, Mean [5]: 0.41 ng/mL | sPLA2 level, Week 4, Median [5]: 0.30 ng/mL | sPLA2 level, Week 4, Range [5]: 0.05 to 1.00 ng/mL | sPLA2 level, Baseline, Mean [6]: 3.85 ng/mL | sPLA2 level, Baseline, Median [6]: 3.85 ng/mL | sPLA2 level, Baseline, Range [6]: 2.80 to 4.90 ng/mL | sPLA2 level, Change from baseline at week 2, Mean [6]: -1.90 ng/mL | sPLA2 level, Change from baseline at week 2, Median [6]: -1.90 ng/mL | sPLA2 level, Change from baseline at week 2, Range [6]: −1.90 to −1.90 ng/ml | sPLA2 level, Change from baseline at week 4, Mean [6]: -3.05 ng/mL | sPLA2 level, Change from baseline at week 4, Median [6]: -3.05 ng/mL | sPLA2 level, Change from baseline at week 4, Range [6]: -4.40 to -1.70 ng/mL | sPLA2 level, Week 2, Mean [6]: 0.90 ng/mL | sPLA2 level, Week 2, Median [6]: 0.90 ng/mL | sPLA2 level, Week 2, Range [6]: 0.90 to 0.90 ng/ml | sPLA2 level, Week 4, Mean [6]: 0.80 ng/mL | sPLA2 level, Week 4, Median [6]: 0.80 ng/mL | sPLA2 level, Week 4, Range [6]: 0.50 to 1.10 ng/mL | sPLA2 level, Baseline, Mean [7]: 2.90 ng/mL | sPLA2 level, Baseline, Median [7]: 2.20 ng/mL | sPLA2 level, Baseline, Range [7]: 1.80 to 4.70 ng/mL | sPLA2 level, Change from baseline at week 2, Mean [7]: -1.65 ng/mL | sPLA2 level, Change from baseline at week 2, Median [7]: -1.65 ng/mL | sPLA2 level, Change from baseline at week 2, Range [7]: -1.90 to -1.40 ng/mL | sPLA2 level, Change from baseline at week 4, Mean [7]: -1.75 ng/mL | sPLA2 level, Change from baseline at week 4, Median [7]: -1.75 ng/mL | sPLA2 level, Change from baseline at week 4, Range [7]: -2.10 to -1.40 ng/mL | sPLA2 level, Week 2, Mean [7]: 0.33 ng/mL | sPLA2 level, Week 2, Median [7]: 0.30 ng/mL | sPLA2 level, Week 2, Range [7]: 0.30 to 0.40 ng/mL | sPLA2 level, Week 4, Mean [7]: 0.27 ng/mL | sPLA2 level, Week 4, Median [7]: 0.30 ng/mL | sPLA2 level, Week 4, Range [7]: 0.10 to 0.40 ng/mL | sPLA2 level, Baseline, Mean [8]: 3.40 ng/mL | sPLA2 level, Baseline, Median [8]: 3.40 ng/mL | sPLA2 level, Baseline, Range [8]: 3.40 to 3.40 ng/ml | sPLA2 level, Change from baseline at week 2, Mean [8]: -2.10 ng/mL | sPLA2 level, Change from baseline at week 2, Median [8]: -2.10 ng/mL | sPLA2 level, Change from baseline at week 2, Range [8]: −2.10 to −2.10 ng/ml | sPLA2 level, Change from baseline at week 4, Mean [8]: -2.20 ng/mL | sPLA2 level, Change from baseline at week 4, Median [8]: -2.20 ng/mL | sPLA2 level, Change from baseline at week 4, Range [8]: −2.20 to −2.20 ng/ml | sPLA2 level, Week 2, Mean [8]: 1.30 ng/mL | sPLA2 level, Week 2, Median [8]: 1.30 ng/mL | sPLA2 level, Week 2, Range [8]: 1.30 to 1.30 ng/ml | sPLA2 level, Week 4, Mean [8]: 1.20 ng/mL | sPLA2 level, Week 4, Median [8]: 1.20 ng/mL | sPLA2 level, Week 4, Range [8]: 1.20 to 1.20 ng/ml | sPLA2 level, Baseline, Mean [9]: 3.05 ng/mL | sPLA2 level, Baseline, Median [9]: 3.40 ng/mL | sPLA2 level, Baseline, Range [9]: 1.20 to 4.40 ng/mL | sPLA2 level, Change from baseline at week 2, Mean [9]: -2.94 ng/mL | sPLA2 level, Change from baseline at week 2, Median [9]: -3.50 ng/mL | sPLA2 level, Change from baseline at week 2, Range [9]: -4.00 to -1.15 ng/mL | sPLA2 level, Change from baseline at week 4, Mean [9]: -3.04 ng/mL | sPLA2 level, Change from baseline at week 4, Median [9]: -3.70 ng/mL | sPLA2 level, Change from baseline at week 4, Range [9]: -4.35 to -1.15 ng/mL | sPLA2 level, Week 2, Mean [9]: 0.16 ng/mL | sPLA2 level, Week 2, Median [9]: 0.05 ng/mL | sPLA2 level, Week 2, Range [9]: 0.05 to 0.40 ng/mL | sPLA2 level, Week 4, Mean [9]: 0.06 ng/mL | sPLA2 level, Week 4, Median [9]: 0.05 ng/mL
